Results taken from ChEMBL document CHEMBL5518240 (J Med Chem, 2024).

Legend:
[1] = Drug exposure in CB17 SCID mouse xenografted with human VCaP cells assessed compound concentration in tumor at 3 mg/kg, po measured after 3 hrs by LC-MS/MS analysis; assay type: ADME, organism-based, Neoplasm; details: read-out: Drug uptake
[2] = system: VCaP; test: Reduction in AR gene expression in AR positive human VCaP cells assessed as reduction in mRNA level measured after 6 hrs by qRT-PCT analysis relative to control; assay type: functional, cell-based; details: dose 0.1-1000 nM
[3] = Reduction in AR gene expression in AR positive human LNCaP cells assessed as reduction in mRNA level at 10 nM measured after 6 hrs by qRT-PCT analysis relative to control; assay type: functional
[4] = system: LNCaP; test: Reduction in KLK3 gene expression in AR positive human LNCaP cells assessed as reduction in mRNA level measured after 6 hrs by qRT-PCT analysis relative to control; assay type: functional, cell-based; details: dose 0.1-1000 nM
[5] = Reduction in c-Myc gene expression in AR positive human LNCaP cells assessed as reduction in mRNA level at 10 nM measured after 6 hrs by qRT-PCT analysis relative to control; assay type: functional
[6] = system: VCaP; test: Antiproliferative activity against AR positive human VCaP cells assessed inhibition of cell growth measured after 4 days by CellTiter-Glo Luminescent cell viability assay; assay type: functional, cell-based; details: 96 h
[7] = target: T1, Protein cereblon/Histone acetyltransferase p300 (Homo sapiens, UniProt Q09472+Q96SW2); test: PROTAC activity at p300/CRBN in human LNCaP cells assessed as maximal protein degradation at 1 uM incubated for 4 hrs by Western blot analysis relative to control; assay type: cell-based
[8] = system: LNCaP; test: Antiproliferative activity against AR positive human LNCaP cells assessed inhibition of cell growth measured after 4 days by CellTiter-Glo Luminescent cell viability assay; assay type: functional, cell-based; details: 96 h
[9] = target: T1, Protein cereblon/Histone acetyltransferase p300; test: PROTAC activity at p300/CRBN in human VCaP cells assessed as maximal protein degradation at 1 uM incubated for 4 hrs by Western blot analysis relative to control; assay type: cell-based
[10] = target: T2, Protein cereblon/CREB-binding protein (Homo sapiens, UniProt Q92793+Q96SW2); test: In vivo PROTAC activity at CBP/CRBN in human VCaP cells xenografted in SCID mouse assessed as reduction in CBP protein at 3 mg/kg, po measured after 24 hrs; assay type: functional, organism-based; set-up: scale not given: the % may be the effect or the level left
[11] = Half life in male ICR mouse at 1 mg/kg, iv measured upto 24 hrs by LC-MS/MS analysis; assay type: ADME, organism-based; details: in vivo
[12] = target: T1, Protein cereblon/Histone acetyltransferase p300; test: PROTAC activity at p300/CRBN in AR positive human VCaP cells assessed as maximal protein degradation at 0.15 nM incubated for 4 hrs by Western blot analysis relative to control; assay type: cell-based
[13] = target: T2, Protein cereblon/CREB-binding protein; test: In vivo PROTAC activity at p300/CRBN in human VCaP cells xenografted in CB17 SCID mouse assessed as reduction in CBP protein at 3 mg/kg, po measured after 24 hrs; assay type: functional, organism-based; set-up: scale not given: the % may be the effect or the level left
[14] = target: T1, Protein cereblon/Histone acetyltransferase p300; test: PROTAC activity at p300/CRBN in AR positive human VCaP cells assessed as maximal protein degradation at 111 nM incubated for 4 hrs by Western blot analysis relative to control; assay type: cell-based
[15] = target: T1, Protein cereblon/Histone acetyltransferase p300; test: PROTAC activity at p300/CRBN in human VCaP cells assessed as protein degradation incubated for 4 hrs by Western blot analysis; assay type: cell-based
Target sequence in this assay (Q09472 whole entry): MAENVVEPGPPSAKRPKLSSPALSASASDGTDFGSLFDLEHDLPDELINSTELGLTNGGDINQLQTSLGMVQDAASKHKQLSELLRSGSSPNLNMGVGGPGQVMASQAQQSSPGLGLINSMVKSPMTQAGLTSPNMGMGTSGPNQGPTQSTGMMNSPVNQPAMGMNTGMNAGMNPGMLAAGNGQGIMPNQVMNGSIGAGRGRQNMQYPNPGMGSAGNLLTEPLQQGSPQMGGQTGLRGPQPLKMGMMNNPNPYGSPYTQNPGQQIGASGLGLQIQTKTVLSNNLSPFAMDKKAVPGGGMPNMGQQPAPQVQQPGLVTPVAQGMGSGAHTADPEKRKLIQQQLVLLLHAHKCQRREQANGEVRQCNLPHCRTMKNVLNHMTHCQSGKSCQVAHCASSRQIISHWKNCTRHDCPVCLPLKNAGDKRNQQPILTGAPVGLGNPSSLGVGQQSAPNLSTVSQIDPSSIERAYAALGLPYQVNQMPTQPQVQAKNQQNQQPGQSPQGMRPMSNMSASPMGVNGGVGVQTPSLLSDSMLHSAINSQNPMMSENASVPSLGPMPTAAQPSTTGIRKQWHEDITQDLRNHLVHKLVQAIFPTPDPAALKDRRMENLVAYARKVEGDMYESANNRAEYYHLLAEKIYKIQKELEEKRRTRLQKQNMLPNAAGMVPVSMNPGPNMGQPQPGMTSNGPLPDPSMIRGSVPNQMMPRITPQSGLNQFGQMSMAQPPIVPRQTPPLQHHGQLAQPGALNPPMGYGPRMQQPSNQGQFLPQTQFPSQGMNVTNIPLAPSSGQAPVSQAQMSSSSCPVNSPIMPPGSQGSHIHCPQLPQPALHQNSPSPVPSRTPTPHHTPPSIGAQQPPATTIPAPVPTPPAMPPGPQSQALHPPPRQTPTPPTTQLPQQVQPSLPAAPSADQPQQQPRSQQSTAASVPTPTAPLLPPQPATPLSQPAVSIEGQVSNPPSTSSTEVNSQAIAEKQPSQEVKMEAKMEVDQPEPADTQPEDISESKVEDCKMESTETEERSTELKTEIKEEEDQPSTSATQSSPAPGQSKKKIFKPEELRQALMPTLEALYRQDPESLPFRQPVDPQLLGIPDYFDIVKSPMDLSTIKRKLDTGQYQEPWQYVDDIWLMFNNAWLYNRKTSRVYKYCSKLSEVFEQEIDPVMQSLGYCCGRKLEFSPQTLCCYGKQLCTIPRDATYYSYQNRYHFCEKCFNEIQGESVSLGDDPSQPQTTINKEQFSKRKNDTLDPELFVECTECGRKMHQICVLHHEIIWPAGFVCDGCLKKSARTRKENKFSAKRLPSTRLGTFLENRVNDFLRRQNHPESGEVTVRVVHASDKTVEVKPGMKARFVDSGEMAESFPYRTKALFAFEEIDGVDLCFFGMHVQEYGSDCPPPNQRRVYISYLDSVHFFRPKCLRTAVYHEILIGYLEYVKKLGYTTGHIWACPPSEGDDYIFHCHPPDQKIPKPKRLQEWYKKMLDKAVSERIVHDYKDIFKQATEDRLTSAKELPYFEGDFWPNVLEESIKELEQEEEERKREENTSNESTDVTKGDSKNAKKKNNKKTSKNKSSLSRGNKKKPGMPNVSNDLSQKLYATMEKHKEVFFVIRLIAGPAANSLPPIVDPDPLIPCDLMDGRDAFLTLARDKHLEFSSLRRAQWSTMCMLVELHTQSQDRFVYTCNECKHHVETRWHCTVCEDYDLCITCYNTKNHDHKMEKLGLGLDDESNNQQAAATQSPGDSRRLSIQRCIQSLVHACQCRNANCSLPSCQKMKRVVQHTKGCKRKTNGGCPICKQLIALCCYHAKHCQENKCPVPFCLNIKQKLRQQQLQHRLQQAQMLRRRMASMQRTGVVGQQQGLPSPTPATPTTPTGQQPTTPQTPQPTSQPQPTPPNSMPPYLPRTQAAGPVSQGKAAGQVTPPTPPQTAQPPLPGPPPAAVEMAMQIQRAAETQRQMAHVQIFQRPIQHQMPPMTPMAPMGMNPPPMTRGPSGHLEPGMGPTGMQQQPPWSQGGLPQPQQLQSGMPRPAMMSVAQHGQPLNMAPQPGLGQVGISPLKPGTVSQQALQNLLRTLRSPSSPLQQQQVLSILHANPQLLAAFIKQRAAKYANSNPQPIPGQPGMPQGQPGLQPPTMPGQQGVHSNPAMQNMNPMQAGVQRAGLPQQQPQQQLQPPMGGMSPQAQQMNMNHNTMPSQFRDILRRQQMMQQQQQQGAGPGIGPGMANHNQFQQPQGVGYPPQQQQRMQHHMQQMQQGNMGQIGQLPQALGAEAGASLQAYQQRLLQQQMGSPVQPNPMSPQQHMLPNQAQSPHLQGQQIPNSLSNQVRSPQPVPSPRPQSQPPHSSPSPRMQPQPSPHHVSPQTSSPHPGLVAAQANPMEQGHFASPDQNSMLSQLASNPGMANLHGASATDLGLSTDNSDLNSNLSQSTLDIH
Target sequence in this assay (Q96SW2 whole entry): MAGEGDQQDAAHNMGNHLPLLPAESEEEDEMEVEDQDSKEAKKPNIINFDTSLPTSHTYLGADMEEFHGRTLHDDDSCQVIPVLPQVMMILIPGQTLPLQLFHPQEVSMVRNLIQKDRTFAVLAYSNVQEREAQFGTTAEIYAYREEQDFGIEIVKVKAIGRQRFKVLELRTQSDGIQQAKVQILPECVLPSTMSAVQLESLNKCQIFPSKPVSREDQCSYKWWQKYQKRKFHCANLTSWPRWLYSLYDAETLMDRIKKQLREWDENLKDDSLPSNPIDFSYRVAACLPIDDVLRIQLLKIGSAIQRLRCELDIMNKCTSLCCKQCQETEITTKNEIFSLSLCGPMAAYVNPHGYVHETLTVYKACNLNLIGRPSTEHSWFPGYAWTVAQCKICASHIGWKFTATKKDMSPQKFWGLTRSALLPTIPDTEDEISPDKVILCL

[16] = system: CWR22R; test: Reduction in c-Myc gene expression in AR positive human 22Rv1 cells assessed as reduction in mRNA level measured after 6 hrs by qRT-PCT analysis relative to control; assay type: functional, cell-based; details: dose 0.1-1000 nM
[17] = target: T2, Protein cereblon/CREB-binding protein; test: PROTAC activity at CBP/CRBN in human LNCaP cells assessed as protein degradation incubated for 4 hrs by Western blot analysis; assay type: cell-based
[18] = target: T1, Protein cereblon/Histone acetyltransferase p300; test: PROTAC activity at p300/CRBN in human 22Rv1 cells assessed as protein degradation incubated for 4 hrs by Western blot analysis; assay type: cell-based
Target sequence in this assay (Q09472 whole entry): as the sequence (Q09472 whole entry) above
Target sequence in this assay (Q96SW2 whole entry): as the sequence (Q96SW2 whole entry) above

[19] = target: T2, Protein cereblon/CREB-binding protein; test: PROTAC activity at CBP/CRBN in human 22Rv1 cells assessed as reduction in protein level at 100 nM incubated for 4 hrs by multiplexed quantitative proteomics analysis relative to control; assay type: cell-based; set-up: scale not given: the % may be the effect or the level left
[20] = target: T2, Protein cereblon/CREB-binding protein; test: In vivo PROTAC activity at p300/CRBN in human VCaP cells xenografted in CB17 SCID mouse assessed as reduction in CBP protein at 1 mg/kg, po measured after 3 hrs; assay type: functional, organism-based; set-up: scale not given: the % may be the effect or the level left
[21] = Reduction in AR gene expression in AR positive human 22Rv1 cells assessed as reduction in mRNA level at 10 nM measured after 6 hrs by qRT-PCT analysis relative to control; assay type: functional, CWR22R
[22] = target: T2, Protein cereblon/CREB-binding protein; test: PROTAC activity at CBP/CRBN in AR positive human VCaP cells assessed as maximal protein degradation at 333.3 nM incubated for 4 hrs by Western blot analysis relative to control; assay type: cell-based
[23] = system: VCaP; test: Potency index, ratio of GNE-049 IC50 to test compound IC50 for antiproliferative activity against AR positive human VCaP cells assessed inhibition of cell growth measured after 4 days by CellTiter-Glo Luminescent cell viability assay; assay type: functional; details: time 4 day
[24] = target: T2, Protein cereblon/CREB-binding protein; test: PROTAC activity at CBP/CRBN in AR positive human VCaP cells assessed as maximal protein degradation at 1.4 nM incubated for 4 hrs by Western blot analysis relative to control; assay type: cell-based
[25] = target: T1, Protein cereblon/Histone acetyltransferase p300; test: PROTAC activity at p300/CRBN in human LNCaP cells assessed as protein degradation incubated for 4 hrs by Western blot analysis; assay type: cell-based
Target sequence in this assay (Q09472 whole entry): as the sequence (Q09472 whole entry) above
Target sequence in this assay (Q96SW2 whole entry): as the sequence (Q96SW2 whole entry) above

concentration at 3 h [1]: 141 ng/mL
IC50 [6]: 2 nM
Emax [7]: 95%
IC50 [8]: 1.6 nM
Emax [9]: > 95%
Activity [10]: > 95%
half-life [11]: 2.8 h
Activity [12]: 50%
Activity [13]: > 95%
Activity [14]: 100%
DC50 [15]: 0.2 nM
DC50 [17]: 0.3 nM
DC50 [18]: 0.4 nM
Activity [19]: 50%
Activity [20]: > 95%
Activity [22]: 78%
Activity [24]: 91%
DC50 [25]: 0.4 nM
Compound: CC(=O)N1CCc2c(c(N3CCCc4cc(-c5cnn(C)c5)c(C(F)F)cc43)nn2[C@H]2CC[C@H](CN3CCN(c4ccc5c(c4)C(=O)N(C4CCC(=O)NC4=O)C5=O)CC3)CC2)C1 (stereo not given in full)
inhibition [2]: Dose-Dependent Effect
inhibition at 0.01 µM [3]: 67%
inhibition [4]: Dose-Dependent Effect
inhibition at 0.01 µM [5]: > 95%
inhibition [16]: Dose-Dependent Effect
inhibition at 0.01 µM [21]: 43%
Ratio IC50 [23]: 100
